From patent US11230555B2, “Bicyclic RORγ modulators” (Escalier Biosciences B.V., priority 2018, dated 2022)

The molecules below were run against T1, RORγt (Homo sapiens, UniProt P51449) (assay: Gal4 ligand binding assay (RORγt Gal fusion reporter assay)). Conditions: inverse agonists, luciferase reporter, 24h.
T1 construct: purchased reporter-cell kit
T1 sequence (P51449 269-508 limits assumed): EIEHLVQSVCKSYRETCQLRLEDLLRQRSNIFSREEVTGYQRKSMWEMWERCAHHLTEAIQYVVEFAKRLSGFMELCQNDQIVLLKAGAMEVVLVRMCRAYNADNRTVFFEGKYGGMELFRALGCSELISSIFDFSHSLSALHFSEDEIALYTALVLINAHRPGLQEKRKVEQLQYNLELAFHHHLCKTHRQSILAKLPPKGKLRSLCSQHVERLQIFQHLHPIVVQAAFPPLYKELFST
Format: cell-based
Procedure: Compounds of the present invention were tested in a human RORγ ligand binding assay using a commercially available cell based ligand binding reporter assay in 96-well format (Cat #IB04001, INDIGO Biosciences, State College, Pa.). The N-terminal DNA binding domains (DBD) of the native RORγ and RORγt receptors have been substituted with that of the yeast GAL4-DBD and stably transfected in […] cells that also stably express luciferase under the regulation by upstream activation sequence of yeast Gal4. These cells constitutively express high level RORγ activity due to binding of endogenous co-factors. Both agonist and inverse agonist activity can be detected. The assay was performed according to kit manufacturer's instructions as follows. 10 mM compound stocks were diluted serially 1:3 with DMSO and further diluted with provided media to generate 10 titration points from 60 μM to 3 nM. These treatment conditions were added to the plates as 2× media in 100 μL volume. Each plate includes a positive control with 10 titration points as well as 6negative control wells with vehicle only, with final DMSO concentration of 0.2%. RORγ reporter cells were rapidly thawed and added to the plates in 100 μL volume. The plates were incubated for 24h in a 37° C. humidified 5% CO2incubator. Media was removed before the addition of room temperature luciferous detection substrate. After 5 minute incubation, relative light units (RLUs) were quantified using a plate reading luminometer. Data was normalized to positive control wells with only […]. Before establishing internal controls, ursolic acid was used as control.
With `Cc1cc(CN2CC3CC2CN3S(C)(=O)=O)ccc1-c1ccc(C(O)(C(F)(F)F)C(F)(F)F)cc1` (stereo not drawn) [Example 49, 1,1,1,3,3,3-hexafluoro-2-(2′-methyl-4′-((5-(methylsulfonyl)-2,5-diazabicyclo[2.2.1]heptan-2-yl)methyl)-[1,1′-biphenyl]-4-yl)propan-2-ol] the IC50 was greater than 250 nM.
In the case of `CCc1cc(CN2CC3CCC(C2)N3S(C)(=O)=O)ncc1-c1ccc(C(O)(C(F)(F)F)C(F)(F)F)cc1Cl` [Example 4, 2-(3-chloro-4-(4-ethyl-6-((8-(methylsulfonyl)-3,8-diazabicyclo[3.2.1]octan-3-yl)methyl)pyridin-3-yl)phenyl)-1,1,1,3,3,3-hexafluoropropan-2-ol], the IC50 is reported as 50 to 250 nM.
With `CCc1cc(CN2CC3CCC(C2)N3S(C)(=O)=O)ccc1-c1ccc(C(O)(C(F)(F)F)C(F)(F)F)cn1` [Example 32, 2-(6-(2-ethyl-4-((8-(methylsulfonyl)-3,8-diazabicyclo[3.2.1]octan-3-yl)methyl)phenyl)pyridin-3-yl)-1,1,1,3,3,3-hexafluoropropan-2-ol] the IC50 was 50 to 250 nM.
With `COCC(=O)N1C2CCC1CN(Cc1ccc(-c3ccc(C(O)(C(F)(F)F)C(F)(F)F)cc3)c(C)c1)C2` [Example 54, 1-(3-((4′-(1,1,1,3,3,3-hexafluoro-2-hydroxypropan-2-yl)-2-methyl-[1,1′-biphenyl]-4-yl)methyl)-3,8-diazabicyclo[3.2.1]octan-8-yl)-2-methoxyethan-1-one] the IC50 was 50 to 250 nM.
For `CCc1cc(CN2C3CCC2CN(S(C)(=O)=O)C3)ccc1-c1ccc(C(O)(C(F)(F)F)C(F)(F)F)cc1Cl` [Example 7, 2-(2-chloro-2′-ethyl-4′-((3-(methylsulfonyl)-3,8-diazabicyclo[3.2.1]octan-8-yl)methyl)-[1,1′-biphenyl]-4-yl)-1,1,1,3,3,3-hexafluoropropan-2-ol], the IC50 was less than 50 nM.
`CCc1c(F)c(CN2CC3CCC(C2)N3S(C)(=O)=O)cc(F)c1-c1ccc(C(O)(C(F)(F)F)C(F)(F)F)cc1Cl` [Example 11, 2-(2-chloro-2′-ethyl-3′,6′-difluoro-4′-((8-(methylsulfonyl)-3,8-diazabicyclo[3.2.1]octan-3-yl)methyl)-[1,1′-biphenyl]-4-yl)-1,1,1,3,3,3-hexafluoropropan-2-ol] gave an IC50 of less than 50 nM.
Molecule `CS(=O)(=O)N1C2CCC1CN(Cc1ccc(-c3ccc(C(O)(C(F)(F)F)C(F)(F)F)cc3)c(Br)c1)C2` [Example 40, 2-(2′-bromo-4′-((8-(methylsulfonyl)-3,8-diazabicyclo[3.2.1]octan-3-yl)methyl)-[1,1′-biphenyl]-4-yl)-1,1,1,3,3,3-hexafluoropropan-2-ol] has an IC50 of 50 to 250 nM.
`CCc1cc(CN2CC3CCC2CN3S(C)(=O)=O)ccc1-c1ccc(C(O)(C(F)(F)F)C(F)(F)F)cc1` (stereo not drawn) [Example 37, 2-(2′-ethyl-4′-((5-(methylsulfonyl)-2,5-diazabicyclo[2.2.2]octan-2-yl)methyl)-[1,1′-biphenyl]-4-yl)-1,1,1,3,3,3-hexafluoropropan-2-ol] gave an IC50 of 50 to 250 nM.
Molecule `Cc1cc(CN2CC3CCC(C2)N3S(=O)(=O)C2CC2)ccc1-c1ccc(C(O)(C(F)(F)F)C(F)(F)F)cc1` [Example 64, 2-(4′-((8-(cyclopropylsulfonyl)-3,8-diazabicyclo[3.2.1]octan-3-yl)methyl)-2′-methyl-[1,1′-biphenyl]-4-yl)-1,1,1,3,3,3-hexafluoropropan-2-ol] has an IC50 of 50 to 250 nM.
With `CCOC(=O)N1C2CCC1CN(Cc1ccc(-c3ccc(C(O)(C(F)(F)F)C(F)(F)F)cc3)c(C)c1)C2` [Example 44, ethyl 3-((4′-(1,1,1,3,3,3-hexafluoro-2-hydroxypropan-2-yl)-2-methyl-[1,1′-biphenyl]-4-yl)methyl)-3,8-diazabicyclo[3.2.1]octane-8-carboxylate] the IC50 was greater than 250 nM.
With `Cc1cc(CN2CC3CCC(C2)N3C(=O)C2CCOCC2)ccc1-c1ccc(C(O)(C(F)(F)F)C(F)(F)F)cc1` [Example 43, (3-((4′-(1,1,1,3,3,3-hexafluoro-2-hydroxypropan-2-yl)-2-methyl-[1,1′-biphenyl]-4-yl)methyl)-3,8-diazabicyclo[3.2.1]octan-8-yl)(tetrahydro-2H-pyran-4-yl)methanone] the IC50 was 50 to 250 nM.
`Cc1cc(CN2CC3CCC(C2)N3Cc2ccncc2)ccc1-c1ccc(C(O)(C(F)(F)F)C(F)(F)F)cc1` [Example 78, 1,1,1,3,3,3-hexafluoro-2-(2′-methyl-4′-((8-(pyridin-4-ylmethyl)-3,8-diazabicyclo[3.2.1]octan-3-yl)methyl)-[1,1′-biphenyl]-4-yl)propan-2-ol] was tested, and the IC50 was less than 50 nM.
For `CCc1c(-c2ccc(C(O)(C(F)(F)F)C(F)(F)F)cc2F)cc(F)c(CN2CC3CCC(C2)N3S(C)(=O)=O)c1F` [Example 13, 2-(2′-ethyl-2,3′,5′-trifluoro-4′-((8-(methylsulfonyl)-3,8-diazabicyclo[3.2.1]octan-3-yl)methyl)-[1,1′-biphenyl]-4-yl)-1,1,1,3,3,3-hexafluoropropan-2-ol], the IC50 was less than 50 nM.
With `CCc1cc(CN2CC3CCC(C2)N3S(C)(=O)=O)c(F)cc1-c1ccc(C(O)(C(F)(F)F)C(F)(F)F)cc1Cl` [Example 19, 2-(2-chloro-2′-ethyl-5′-fluoro-4′-((8-(methylsulfonyl)-3,8-diazabicyclo[3.2.1]octan-3-yl)methyl)-[1,1′-biphenyl]-4-yl)-1,1,1,3,3,3-hexafluoropropan-2-ol] the IC50 was less than 50 nM.
Work on `CCc1cc(C(O)(C(F)(F)F)C(F)(F)F)ccc1-c1ccc(CN2CC3CCC(C2)N3S(C)(=O)=O)cc1C` [Example 26, 2-(2-ethyl-2′-methyl-4′-((8-(methylsulfonyl)-3,8-diazabicyclo[3.2.1]octan-3-yl)methyl)-[1,1′-biphenyl]-4-yl)-1,1,1,3,3,3-hexafluoropropan-2-ol] yielded an IC50 of less than 50 nM.
In the case of `Cc1cc(CN2CC3CCC(C2)N3S(=O)(=O)Cc2ccccc2)ccc1-c1ccc(C(O)(C(F)(F)F)C(F)(F)F)cc1` [Example 65, 2-(4′-((8-(benzylsulfonyl)-3,8-diazabicyclo[3.2.1]octan-3-yl)methyl)-2′-methyl-[1,1′-biphenyl]-4-yl)-1,1,1,3,3,3-hexafluoropropan-2-ol], the IC50 is reported as greater than 250 nM.
`CCc1c(F)c(CN2CC3CCC(C2)N3S(C)(=O)=O)cc(F)c1-c1ccc(C(O)(C(F)(F)F)C(F)(F)F)cc1C` [Example 30, 2-(2′-ethyl-3′,6′-difluoro-2-methyl-4′-((8-(methylsulfonyl)-3,8-diazabicyclo[3.2.1]octan-3-yl)methyl)-[1,1′-biphenyl]-4-yl)-1,1,1,3,3,3-hexafluoropropan-2-ol] showed an IC50 of less than 50 nM.
With `CCc1cc(CN2CC3CC2CN3S(C)(=O)=O)ccc1-c1ccc(C(O)(C(F)(F)F)C(F)(F)F)cc1` (stereo not drawn) [Example 38, 2-(2′-ethyl-4′-((5-(methylsulfonyl)-2,5-diazabicyclo[2.2.1]heptan-2-yl)methyl)-[1,1′-biphenyl]-4-yl)-1,1,1,3,3,3-hexafluoropropan-2-ol] the IC50 was less than 50 nM.
For `Cc1cc(CN2CC3CCC(C2)N3Cc2ccncc2F)ccc1-c1ccc(C(O)(C(F)(F)F)C(F)(F)F)cc1` [Example 63, 1,1,1,3,3,3-hexafluoro-2-(4′-((8-((3-fluoropyridin-4-yl)methyl)-3,8-diazabicyclo[3.2.1]octan-3-yl)methyl)-2′-methyl-[1,1′-biphenyl]-4-yl)propan-2-ol], the IC50 was 50 to 250 nM.
Work on `CCc1cc(CN2CC3CCC(C2)N3S(C)(=O)=O)ccc1-c1ccc(C(O)(C(F)(F)F)C(F)(F)F)cc1C(N)=O` [Example 31, 2′-ethyl-4-(1,1,1,3,3,3-hexafluoro-2-hydroxypropan-2-yl)-4′-((8-(methylsulfonyl)-3,8-diazabicyclo[3.2.1]octan-3-yl)methyl)-[1,1′-biphenyl]-2-carboxamide] yielded an IC50 greater than 250 nM.
Work on `CCN1C2CCC1CN(Cc1ccc(-c3ccc(C(O)(C(F)(F)F)C(F)(F)F)cc3)c(C)c1)C2` [Example 42, 2-(4′-((8-ethyl-3,8-diazabicyclo[3.2.1]octan-3-yl)methyl)-2′-methyl-[1,1′-biphenyl]-4-yl)-1,1,1,3,3,3-hexafluoropropan-2-ol] yielded an IC50 greater than 250 nM.
`Cc1cc(CN2CC3CCC(C2)N3C(=O)Cc2c(F)cccc2F)ccc1-c1ccc(C(O)(C(F)(F)F)C(F)(F)F)cc1` [Example 74, 2-(2,6-difluorophenyl)-1-(3-((4′-(1,1,1,3,3,3-hexafluoro-2-hydroxypropan-2-yl)-2-methyl-[1,1′-biphenyl]-4-yl)methyl)-3,8-diazabicyclo[3.2.1]octan-8-yl)ethan-1-one] gave an IC50 greater than 250 nM.
`CCc1cc(CN2CC3CCC(C2)N3S(C)(=O)=O)cnc1-c1ccc(C(O)(C(F)(F)F)C(F)(F)F)cc1C` [Example 33, 2-(4-(3-ethyl-5-((8-(methylsulfonyl)-3,8-diazabicyclo[3.2.1]octan-3-yl)methyl)pyridin-2-yl)-3-methylphenyl)-1,1,1,3,3,3-hexafluoropropan-2-ol] showed an IC50 greater than 250 nM.
Molecule `CCc1cc(CN2CC3CCC(C2)N3S(C)(=O)=O)cc(F)c1-c1ccc(C(O)(C(F)(F)F)C(F)(F)F)cc1F` [Example 17, 2-(2′-ethyl-2,6′-difluoro-4′-((8-(methylsulfonyl)-3,8-diazabicyclo[3.2.1]octan-3-yl)methyl)-[1,1′-biphenyl]-4-yl)-1,1,1,3,3,3-hexafluoropropan-2-ol] has an IC50 of less than 50 nM.
